{"source": "paper PMC11724075", "about": "“Small-molecule-induced ERBB4 activation to treat heart failure” (Nature Communications, 2025)", "key": {"ERBB1/ERBB1": {"target": "T1, ERBB1/ERBB1 (Homo sapiens, UniProt P00533)", "T1 construct": "host or cells: U2OS (osteosarcoma cells), PathHunter engineered line", "experiment": "PathHunter U2OS ERBB1/ERBB1 dimerization assay", "format": "cell-based", "conditions": "for ERBB1/ERBB1 dimerization signal: relative to signal with EGF, single biological replicates", "procedure": "PathHunter U2OS ERBB4/ERBB4 (osteosarcoma cells; Eurofins, 93-0961C3), U2OS ERBB2/ERBB4 (osteosarcoma cells; Eurofins, 493-0960C3), ERBB2/ERBB3 (osteosarcoma cells; Eurofins, 93-1042C3) and ERBB1/ERBB1 (osteosarcoma cells; Eurofins, 93-0989C3) dimerization cell lines were cultured according to the manufacturer’s instructions. Briefly, cells were cultured in Cell Culture Reagent 103 (Eurofins, 92-3103 G) supplemented with 250 µg/mL Hygromycin B (Eurofins, 92-0029) and 500 µg/mL G418 (Eurofins, 92-0030), and were maintained at 37 °C in humidified atmosphere of 5% CO2. HCFs (Innoprot, P10454) were cultured in fibroblast medium (Innoprot, P60108) supplemented with 10% (v/v) fetal bovine serum (FBS, Innoprot), 10% (v/v) fibroblast growth supplement (Innoprot), and 1% (v/v) penicillin/streptomycin solution (Innoprot). iAMs[33] (kindly provided by LUMC) were cultured in Advanced DMEM F-12 (Thermo Fisher Scientific, 12634028) supplemented with 2% (v/v) heat-inactivated FBS (Thermo Fisher Scientific, 10270106), 1% (v/v) penicillin/streptomycin (10,000 units/mL and 10 mg/mL respectively, Thermo Fisher Scientific, 15140122), 1× GlutaMAX (Thermo Fisher Scientific, 35050061), and 100 ng/mL doxycycline (Tocris, 4090) for proliferation. To induce differentiation, iAMs were transferred to medium without doxycycline.\nU2OS ERBB4/ERBB4 dimerization cells were seeded at a density of 5 × 10^4 cells/well in 100 µL Cell Plating 0 Reagent, in white 96-well plates (PerkinElmer, 6005680) and incubated for 24 h at 37 °C, 5% CO2. […] Next, 110 µL PathHunter Flash Detection Reagent was added to each well and incubated at RT for 1 h after which the luminescence signal was measured using the Luminoskan Ascent (Thermo Fisher Scientific). […] The same experimental set-up was used for the U2OS ERBB2/ERBB4, U2OS ERBB2/ERBB3 and U2OS ERBB1/ERBB1 dimerization cell lines."}, "Erbb4-null mice": {"system": "Erbb4-null mice", "experiment": "Acute high-dose DOX-induced cardiotoxicity, cTnI ELISA, female Erbb4-null mice", "format": "in vivo, mouse", "design": "In vivo DOX experiment in male+female Erbb4-null mice with EF-1 (cTnI): unit not given here", "procedure": "DOX (20 mg/kg; Pfizer, 4222) was administered intraperitoneally once on day 4 to induce cardiotoxicity. On day 7, mice were euthanized, serum samples were collected via the retrobulbar sinus and hearts were excised.\nFloxed Erbb4 mice (Erbb4^f/f; C57BL/6N; 129-Erbb4tm1Fej/Mmucd, MMRRC, #010439-UCD) were crossed with CAGGCre-ER^TM mice (Jackson Laboratory, 004682) containing the Tg(CAG-cre/Esr1*)5Amc transgene that expresses Cre recombinase under the control of a chicken beta actin promoter/enhancer coupled to the human cytomegalovirus immediate-early gene enhancer, resulting in expression of tamoxifen-inducible Cre-ERT in most cell types. To induce Cre recombinase-mediated deletion of Erbb4, eleven-week-old female and male iCAGGCre-ER^TM/Erbb4^f/f mice were intraperitoneally injected with tamoxifen (Merck, T5648; 10 mg/kg; in corn oil) daily for 5 consecutive days.\nSerum samples were centrifuged for 15 min (1000 × g) at 4 °C and analyzed using a mouse cardiac Troponin I Type 3 ELISA kit (Novus Biologicals, NBP3–00456), according to the manufacturer’s instructions. Briefly, a 96-well microplate was coated with an anti-mouse TNNI3/cTnI primary antibody (Capture Antibody Solution). Standard solution or samples (100 μL) were added to the plate and incubated for 90 min at 37 °C. […]"}}, "note": "Where “and” joins values, the source holds several entries; their conditions need not be identical. Identical values can stand only once."}
{"compound": "O=C(NC1CC1)C(Sc1nc2ccccc2c(=O)n1C1CCCC1)c1ccccc1", "note": "(centres unmarked) [EF-1]", "values": [{"measurement": "EC50", "setting": "ERBB1/ERBB1", "result": "> 32", "unit": "µM"}, {"measurement": "ERBB1/ERBB1 dimerization signal", "setting": "ERBB1/ERBB1; 3.125e-8 M", "result": 0}, {"measurement": "ERBB1/ERBB1 dimerization signal", "setting": "ERBB1/ERBB1; 6.25e-8 M", "result": "8.38 and 6.13 and 6.6 and 7.02 and 4.04 and 2.46"}, {"measurement": "ERBB1/ERBB1 dimerization signal", "setting": "ERBB1/ERBB1; 1.25e-7 M", "result": "4.23 and 2.21 and 2.75 and 1.65 (2×) and 1.93"}, {"measurement": "ERBB1/ERBB1 dimerization signal", "setting": "ERBB1/ERBB1; 2.5e-7 M", "result": "5.73 and 2.08 and 2.79 and 4.91 and 2.29 and 1.1"}, {"measurement": "ERBB1/ERBB1 dimerization signal", "setting": "ERBB1/ERBB1; 5e-7 M", "result": "5.49 and 1.35 and 1.39 and 3.65 and 1.57 and 0.45"}, {"measurement": "ERBB1/ERBB1 dimerization signal", "setting": "ERBB1/ERBB1; 1e-6 M", "result": "6.08 and 3.69 and 2.97 and 5.23 and 2.17 and 1.53"}, {"measurement": "ERBB1/ERBB1 dimerization signal", "setting": "ERBB1/ERBB1; 2e-6 M", "result": "8.8 and 4.67 and 6.18 and 5.92 and 4.48 and 3.39"}, {"measurement": "ERBB1/ERBB1 dimerization signal", "setting": "ERBB1/ERBB1; 4e-6 M", "result": "15.68 and 13.03 and 10.62 and 10.47 and 7.22 and 7.25"}, {"measurement": "ERBB1/ERBB1 dimerization signal", "setting": "ERBB1/ERBB1; 8e-6 M", "result": "28.31 and 23.51 and 19.8 and 20.63 and 14.67 and 14.01"}, {"measurement": "ERBB1/ERBB1 dimerization signal", "setting": "ERBB1/ERBB1; 1.6e-5 M", "result": "47.08 and 37.9 and 37.11 and 43.5 and 44.59 and 32.06"}, {"measurement": "ERBB1/ERBB1 dimerization signal", "setting": "ERBB1/ERBB1; 3.2e-5 M", "result": "67.98 and 64.53 and 62.88 and 78.66 and 59.73 and 53.27"}, {"measurement": "effect on DOX-induced increase in cTnI plasma levels (in words)", "setting": "Erbb4-null mice; female Erbb4-null mice", "result": "did not prevent the increase in cTnI plasma levels"}, {"measurement": "In vivo DOX experiment in male+female Erbb4-null mice with EF-1 (cTnI)", "setting": "Erbb4-null mice; male+female Erbb4-null mice, DOX/EF-1 group, individual animals, Fig. 6d", "result": "3.884 and 54.574 and 87.9141 and 7.084 and 54.129 and 15.8453 and 39.5225 and 62.9332"}]}
